Patent US11248234B2, “Herbicide-resistant hydroxyphenylpyruvate dioxygenases” (BASF SE, priority 2015, dated 2022)

Legend:
[1] = test system: T2 Arabidopsis plants expressing mutated variants of Scenedesmus HPPD (all traits and events); assay: Greenhouse spray test, injury evaluation; type: in vivo, Arabidopsis thaliana; settings: for leaf damage: two lowest application rates (1.56 g/ha and 6.25 g/ha)
Method: (§1) Non-transgenic control plants were treated in parallel and pictures taken 14 days after treatment.
(§2) For post emergence treatment, the test plants are first grown to a height of 3 to 15 cm, depending on the plant habit, and only then treated with the herbicides. For this purpose, the test plants are either sown directly and grown in the same containers, or they are first grown separately and transplanted into the test containers a few days prior to treatment.
(§3) Additionally, T1 and T2 transgenic Arabidopsis plants can be tested for improved tolerance to HPPD-inhibiting herbicides in greenhouse studies. Herbicide injury scoring is done 2-3 weeks after treatment and is rated on a scale of 0 to 100%, 0% being no injury and 100% being complete death.
(§4) Transgenic T2 Arabidopsis plants were sprayed with a range of doses from 1.56-25 g/ha of different HPPD-inhibiting herbicides and injury evaluations were taken two weeks after treatment (FIG. 4). As depicted in Table 8, control plants were severely injured by all doses of herbicides applied, with at least 58% of leaf material being damaged at the lowest application rate and 100% leaf damage at the second application rate.

[2] = test system: transgenic Arabidopsis plants (T2) SoHPPD Q317H (short); assay: Greenhouse spray test, injury evaluation; type: in vivo, Arabidopsis thaliana; settings: for Injury: 14 DAT
Method: as §1, §2, §3, §4

[3] = test system: Scenedesmus HPPD with glutamine 317 exchanged to methionine, alanine 318 substituted by glycine and glutamate 345 mutated to glutamin; assay: In vitro HPPD activity assay; type: biochemical, Scenedesmus obliquus; settings: in words, from Table 6 data
Method: HPPD produces homogentisic acid and CO2 from 4-hydroxyphenylpyruvate (4-HPP) and O2. The activity assay for HPPD is based on the analysis of homogentisic acid by reversed phase HPLC.
The assay mixture can contain 150 mM potassium phosphate buffer pH 7.0, 50 mM L-ascorbic acid, 100 μM Catalase (Sigma-Aldrich), 1 μM FeSO4 and 0.2 units of purified mutated HPPD enzyme in a total volume of 505 μl. 1 unit is defined as the amount of enzyme that is required to produce 1 nmol of HGA per minute at 20° C.
After a preincubation of 30 min the reaction is started by adding 4-HPP to a final concentration of 0.05 mM. The reaction is allowed to proceed for 45 min at room temperature. The reaction is stopped by the addition of 50 μl of 4.5 M phosphoric acid. The sample is filtered using a […] pore size PVDF filtration device.
5 μl of the cleared sample is analyzed on an UPLC HSS T3 column (particle size 1.8 μm, dimensions 2.1×50 mm; Waters) by isocratic elution using 90% 20 mM NaH2PO4 pH 2.2, 10% methanol (v/v).
HGA is detected electrochemically at 750 mV (mode: DC; polarity: positive) and quantified by integrating peak areas (Empower software; Waters).
Inhibitors are dissolved in DMSO (dimethylsulfoxide) to a concentration of 0.5 mM. From this stock solution serial five-fold dilutions are prepared in DMSO, which are used in the assay. […] IC50 values are calculated using non-linear regression. […]

[4] = test system: Arabidopsis overexpression line SoHPPD (SEQ ID NO: 2); assay: Germination assay in 48-well plates (tolerance factor); type: in vivo, Arabidopsis thaliana; settings: plant growth IC50 transgenic / wildtype; mean of 5 T2 events; non-transgenic set to 1
Method: (§5) Tolerance to HPPD-inhibiting herbicides can also be assessed in Arabidopsis. In this case transgenic Arabidopsis thaliana plants are assayed for improved tolerance to HPPD-inhibiting herbicides in 48-well plates (germination assay). Seeds are surface sterilized by stirring for 5 min in ethanol+water (70+30 by volume), rinsing one time with ethanol+water (70+30 by volume) and two times with a sterile, deionized water. The seeds are resuspended in 0.1% agar dissolved in water (w/v). Four to five seeds per well are plated on solid nutrient medium consisting of half-strength Murashige Skoog nutrient solution, pH 5.8 (Murashige and Skoog (1962) Physiologia Plantarum 15: 473-497). Compounds are dissolved in dimethylsulfoxid (DMSO) and added to the medium prior solidification (final DMSO concentration 0.1%). Multi well plates are incubated in a growth chamber at 22° C., 75% relative humidity and 110 μmol Phot*m−2*s−1 with 14:10 h light:dark photoperiod. Growth inhibition is evaluated seven to ten days after seeding in comparison to wild type plants. Tolerance factor is calculated by dividing the plant growth IC50 value of transgenic plants containing a HPPD sequence by that of wildtype plants.

[5] = test system: Arabidopsis overexpression line SoHPPD (SEQ ID NO: 4); assay: as above; type: in vivo, Arabidopsis thaliana; settings: plant growth IC50 transgenic / wildtype; mean of 5 T2 events; non-transgenic set to 1
Method: as §5

[6] = test system: Arabidopsis overexpression line SoHPPD I419V (short); assay: as above; type: in vivo, Arabidopsis thaliana; settings: plant growth IC50 transgenic / wildtype; mean of 5 T2 events; non-transgenic set to 1
Method: as §5

[7] = test system: Arabidopsis overexpression line SoHPPD I455V; assay: as above; type: in vivo, Arabidopsis thaliana; settings: plant growth IC50 transgenic / wildtype; mean of 5 T2 events; non-transgenic set to 1
Method: as §5

[8] = test system: Arabidopsis overexpression line SoHPPD Q317H (short); assay: as above; type: in vivo, Arabidopsis thaliana; settings: plant growth IC50 transgenic / wildtype; mean of 5 T2 events; non-transgenic set to 1
Method: as §5

[9] = test system: Arabidopsis overexpression line SoHPPD Q317H, A318G, E345Q (short); assay: as above; type: in vivo, Arabidopsis thaliana; settings: plant growth IC50 transgenic / wildtype; mean of 5 T2 events; non-transgenic set to 1
Method: as §5

[10] = test system: Arabidopsis overexpression line SoHPPD_F363I (short); assay: as above; type: in vivo, Arabidopsis thaliana; settings: plant growth IC50 transgenic / wildtype; mean of 5 T2 events; non-transgenic set to 1
Method: as §5

Compound | leaf damage [1] | average damage (leaf injury) ([2]; 25 g ai/ha, average of events) | Injury ([2]; Event B, 1.56 g ai/ha) | Injury ([2]; Event B, 6.25 g ai/ha) | Injury ([2]; Event B, 25 g ai/ha) | Injury ([2]; Event C, 1.56 g ai/ha) | Injury ([2]; Event C, 6.25 g ai/ha) | Injury ([2]; Event C, 25 g ai/ha) | resistance of the enzyme to the inhibitor [3] | Tolerance factor [4] | Tolerance factor [5] | Tolerance factor [6] | Tolerance factor [7] | Tolerance factor [8] | Tolerance factor [9] | Tolerance factor [10] | leaf material being damaged ([1]; 25 g/ha)
CS(=O)(=O)c1ccc(C(=O)C2C(=O)CCCC2=O)c([N+](=O)[O-])c1 [Inhibitor 2, 2-(4-methylsulfonyl-2-nitro-benzoyl)cyclohexane-1,3-dione] | did not show leaf injury | 34% | 0% | 0% | 33% | 0% | 3% | 35% |  |  |  |  |  |  |  |  | 
CCS(=O)(=O)c1cc(C(F)(F)F)ccc1C1=C(O)c2ncccc2C(C)(C)S1(=O)=O [Inhibitor 4, 7-[2-ethylsulfonyl-4-(trifluoromethyl)phenyl]-5,5-dimethyl-6,6-dioxo-thiopyrano[4,3-b]pyridin-8-ol] |  |  |  |  |  |  |  |  | conferred resistance |  |  |  |  |  |  |  | 
Cc1c(C(=O)c2cnn(C)c2O)ccc(S(C)(=O)=O)c1C1=NOCC1 [Inhibitor 1, [3-(4,5-dihydroisoxazol-3-yl)-2-methyl-4-methylsulfonyl-phenyl]-(5-hydroxy-1-methyl-pyrazol-4-yl)methanone] | 0-8% |  | 0% | 0% | 18% | 0% | 0% | 10% |  | 92 | 82 | 100 | 7 | 100 | 50 | 1000 | less than 20%
